A short description of one data set: physchem. The note with it: buffer, pH 8.5.
The nature of data set [1]: Solubility in aqueous buffer. The data set is classed as physicochemical. The following applies: pH 7.2, aqueous buffer.
Data set [2] in a line: Stability of the maleimide moiety of MAL-FMS-NHS in aqueous solutions (GSH/DTNB). The data set is classed as physicochemical. As to the method:
MAL-FMS-NHS (1 mM) was incubated at room temperature in H2O (pH 6.0), in 0.007 M acetic acid (pH˜4.0), in 0.1 M phosphate buffer (pH 7.4), and in 0.1 M NaHCO3 (pH 8.5). At the indicated time points, aliquots were allowed to react with a slight excess of GSH (15 min at pH 7.2) and the concentration of unreacted GSH was determined with 5,5-dithiobis(2-nitrobenzoic acid) (DTNB).
Stability of the MAL-functional moiety in aqueous solutions. In order to test the stability of the maleimide function of MAL-FMS-NHS in aqueous solutions at different pH values, MAL-FMS-NHS (1 mM) was incubated at room temperature in water (pH 6.0), in 0.007M acetic acid (pH˜4.0), in 0.1M phosphate buffer (pH 7.4), and in 0.1M NaHCO3 (pH 8.5). At several time points, aliquots were allowed to react with a slight excess of reduced glutathione (GSH) (15 min at pH 7.2) and the concentration of unreacted GSH was determined with DTNB (5,5′-dithio-bis-2-nitrobenzoic acid, Ellman's reagent), by measuring the absorbance of the produced yellow colored 5-thio-2-nitrobenzoic acid (TNB) at 405 or 412 nm.

Where a SMILES comes first, the peptide text is derived from it.

As usually defined, the solubility is how much of the substance goes into solution per volume. Lower therefore signals a poorly soluble substance.

In turn, `CC[C@H](C)[C@H](NC(=O)[C@H](CCC(=O)O)NC(=O)[C@H](C)NC(=O)OCC1c2cc(NC(=O)CCN3C(=O)C=CC3=O)ccc2-c2ccc(S(=O)(=O)O)cc21)C(=O)N[C@@H](CO)C(=O)NCC(=O)N[C@@H](CCC(N)=O)C(=O)N[C@@H](CC(C)C)C(=O)N[C@@H](CO)C(=O)N[C@@H](Cc1ccc(O)cc1)C(=O)N[C@H](C(=O)N[C@@H](CCCNC(=N)N)C(=O)N[C@@H](CC(=O)O)C(=O)N[C@H](C(=O)N[C@@H](CC(N)=O)C(=O)N[C@@H](CO)C(=O)N[C@@H](Cc1c[nH]c2ccccc12)C(=O)N[C@@H](CCC(N)=O)C(=O)N[C@@H](Cc1c[nH]cn1)C(=O)N[C@H](C(=O)N[C@@H](Cc1c[nH]c2ccccc12)C(=O)N[C@H](C(=O)N[C@@H](CC(N)=O)C(=O)N[C@H](C(=O)N[C@@H](CO)C(=O)N[C@H](C(=O)N[C@@H](CCC(=O)O)C(=O)N[C@@H](CC(N)=O)C(=O)O)[C@@H](C)CC)C(C)C)[C@@H](C)O)[C@@H](C)CC)C(C)C)C(C)C` (some centres unmarked) [Mal-FMS-Peptide 27] (HELM PEPTIDE1{[O=C1C=CC(=O)N1CCC(=O)[*:2]].[O=C(OCC1c2cc(N[*:1])ccc2-c2ccc(S(=O)(=O)O)cc21)[*:2]].A.E.I.S.G.Q.L.S.Y.V.R.D.V.N.S.W.Q.H.I.W.T.N.V.S.I.E.N}$$$$V2.0; N-terminus and C-terminus assumed) showed a half-life in “physchem” of 8.4 h.

As to `O=C(CCN1C(=O)C=CC1=O)Nc1ccc2c(c1)C(COC(=O)ON1C(=O)CCC1=O)c1cc(S(=O)(=O)O)ccc1-2` (centres unmarked) [MAL-FMS-NHS, N-[2-(maleimido-propionylamino)-7-sulfo-fluoren-9-yl-methoxycarbonyloxy]-succinimide], the solubility in data set [1] is more than 10000 µg/mL. Besides, the half-life at 1 mM in data set [2] (0.1 M NaHCO3 aqueous solution, 0.1M NaHCO3 pH 8.5, room temperature, read-out: t1/2 of destruction of the maleimide moiety (converted)) is 2.7 ± 0.3 h. Besides, the “stability of the maleimide function” value in data set [2] (pH 4 to 6, over a day or two) is “fully stable”; in data set [2] (pH 7.2), “stable over a period of several hours”.

The values above are taken from US9433683B2, “Reversible pegylated drugs” (Yeda Research and Development Co., Ltd., priority 2003, dated 2016).
